Experimental findings from ChEMBL document CHEMBL1152510, “Melanogenesis inhibitors from the rhizomes of Alpinia officinarum in B16 melanoma cells” (Bioorg Med Chem, 2009) are described below.

A short description of test [1]: Inhibition of theophylline-stimulated mouse B16-4A5 cell proliferation assessed as cell viability at 1000 uM after 68 hrs by WST8 assay. The following applies: B16-4A5, 68 h. It counts as functional. Background: Tetrazolium dyes change colour on reduction, which living cells bring about.
Test [2] can be described thus: cells. The conditions noted are these: Mus musculus, B16-4A5, 68 h, read-out: INH.
Description: Inhibition of theophylline-stimulated mouse B16-4A5 cell proliferation assessed as cell viability at 100 uM after 68 hrs by WST8 assay
The test system of test [3] is B16. Put plainly: cells. The conditions noted are these: Mus musculus, B16, 72 h.
Description: Inhibition of melanogenesis in theophylline-stimulated mouse B16-4A5 cells after 72 hrs
The nature of test [4]: cells. The conditions noted are these: Mus musculus, B16-4A5, 72 h, read-out: INH.
Description: Inhibition of melanogenesis in theophylline-stimulated mouse B16-4A5 cells at 100 uM after 72 hrs
Test [5] in a line: Inhibition of melanogenesis in theophylline-stimulated mouse B16-4A5 cells at 1000 uM after 72 hrs. It counts as functional. The conditions noted are these: B16-4A5, 72 h.
Test [6] in a line: cells. The following applies: Mus musculus, B16-4A5, 68 h.
Description: Inhibition of theophylline-stimulated mouse B16-4A5 cell proliferation assessed as cell viability after 68 hrs by WST8 assay
Test [7] can be described thus: Inhibition of melanogenesis in theophylline-stimulated mouse B16-4A5 cells at 300 uM after 72 hrs. The following applies: B16-4A5, 72 h. Type of test: functional.
Test [8] is described as follows: cells. The conditions noted are these: Mus musculus, B16-4A5, 72 h, read-out: INH. The source holds these as a separate data set.
Description: Inhibition of melanogenesis in theophylline-stimulated mouse B16-4A5 cells at 10 uM after 72 hrs
A short description of test [9]: cells. The following applies: Mus musculus, B16-4A5, 72 h, read-out: INH. This is another data set of the same source.
Description: Inhibition of melanogenesis in theophylline-stimulated mouse B16-4A5 cells at 30 uM after 72 hrs
The nature of test [10]: cells. The conditions noted are these: Mus musculus, B16-4A5, 68 h, read-out: INH. The source holds these as a separate data set.
Description: Inhibition of theophylline-stimulated mouse B16-4A5 cell proliferation assessed as cell viability at 30 uM after 68 hrs by WST8 assay
Test [11] in a line: cells. The conditions noted are these: Mus musculus, B16-4A5, 68 h, read-out: INH. The source holds these as a separate data set.
Description: Inhibition of theophylline-stimulated mouse B16-4A5 cell proliferation assessed as cell viability at 10 uM after 68 hrs by WST8 assay
Test [12] in a line: Inhibition of theophylline-stimulated mouse B16-4A5 cell proliferation assessed as cell viability at 300 uM after 68 hrs by WST8 assay. It counts as functional. The conditions noted are these: B16-4A5, 68 h.

Bounds are passed on as bounds.

The IC50 is the midpoint of a concentration-inhibition curve. Read a low IC50 as higher potency. `OC[C@H]1O[C@@H](Oc2ccc(O)cc2)[C@H](O)[C@@H](O)[C@@H]1O` [ARBUTIN]: the inhibition at 1000 µM in test [1] came to 46.9%; in [5], 88.7%. Further, the inhibition at 100 µM in test [2] was determined as 21.9%; in [4], 46.9%. Also, the IC50 in [3] is 116 µM; in test [6], > 1000 µM. In addition, the inhibition at 300 µM in test [7] stood at 71%; in test [12] it was 20.2%. For the same compound, the figures for the inhibition at 10 µM in [8] and in test [11] were 6.7% and 8.7%, respectively. For the same compound, the results for the inhibition at 30 µM in [9] and in [10] were 17.8% and 17.6%, respectively.
